Test results reported in patent publication US10670605B2, “Cysteine reactive probes and uses thereof” (The Scripps Research Institute, priority 2015, dated 2020).

Key:
Assay in all cases: Competitive isoTOP-ABPP in situ (fragment-treated cells)
Assay type in all cases: cell-based
[1] = molecular target: T1, cysteines in MDA-MB-231 and Ramos cells (Homo sapiens, UniProt P51649)
T1 sequence (P51649 48-535): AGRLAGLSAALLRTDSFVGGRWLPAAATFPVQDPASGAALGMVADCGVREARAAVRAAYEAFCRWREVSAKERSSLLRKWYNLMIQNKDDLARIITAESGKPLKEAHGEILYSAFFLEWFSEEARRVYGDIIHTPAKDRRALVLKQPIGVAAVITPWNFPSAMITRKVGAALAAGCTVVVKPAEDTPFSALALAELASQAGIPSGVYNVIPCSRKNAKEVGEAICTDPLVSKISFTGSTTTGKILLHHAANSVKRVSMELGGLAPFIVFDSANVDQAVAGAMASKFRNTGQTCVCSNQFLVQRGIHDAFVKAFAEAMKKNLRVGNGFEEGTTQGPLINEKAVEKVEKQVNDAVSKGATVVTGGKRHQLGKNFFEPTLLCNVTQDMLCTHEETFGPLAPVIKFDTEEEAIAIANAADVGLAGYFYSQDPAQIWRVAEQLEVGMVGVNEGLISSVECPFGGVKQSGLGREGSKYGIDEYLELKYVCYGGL

[2] = molecular target: T2, cysteines in MDA-MB-231 and Ramos cells (Homo sapiens, UniProt P55265); settings: 200 μM, insitu
T2 sequence (P55265 1-1226): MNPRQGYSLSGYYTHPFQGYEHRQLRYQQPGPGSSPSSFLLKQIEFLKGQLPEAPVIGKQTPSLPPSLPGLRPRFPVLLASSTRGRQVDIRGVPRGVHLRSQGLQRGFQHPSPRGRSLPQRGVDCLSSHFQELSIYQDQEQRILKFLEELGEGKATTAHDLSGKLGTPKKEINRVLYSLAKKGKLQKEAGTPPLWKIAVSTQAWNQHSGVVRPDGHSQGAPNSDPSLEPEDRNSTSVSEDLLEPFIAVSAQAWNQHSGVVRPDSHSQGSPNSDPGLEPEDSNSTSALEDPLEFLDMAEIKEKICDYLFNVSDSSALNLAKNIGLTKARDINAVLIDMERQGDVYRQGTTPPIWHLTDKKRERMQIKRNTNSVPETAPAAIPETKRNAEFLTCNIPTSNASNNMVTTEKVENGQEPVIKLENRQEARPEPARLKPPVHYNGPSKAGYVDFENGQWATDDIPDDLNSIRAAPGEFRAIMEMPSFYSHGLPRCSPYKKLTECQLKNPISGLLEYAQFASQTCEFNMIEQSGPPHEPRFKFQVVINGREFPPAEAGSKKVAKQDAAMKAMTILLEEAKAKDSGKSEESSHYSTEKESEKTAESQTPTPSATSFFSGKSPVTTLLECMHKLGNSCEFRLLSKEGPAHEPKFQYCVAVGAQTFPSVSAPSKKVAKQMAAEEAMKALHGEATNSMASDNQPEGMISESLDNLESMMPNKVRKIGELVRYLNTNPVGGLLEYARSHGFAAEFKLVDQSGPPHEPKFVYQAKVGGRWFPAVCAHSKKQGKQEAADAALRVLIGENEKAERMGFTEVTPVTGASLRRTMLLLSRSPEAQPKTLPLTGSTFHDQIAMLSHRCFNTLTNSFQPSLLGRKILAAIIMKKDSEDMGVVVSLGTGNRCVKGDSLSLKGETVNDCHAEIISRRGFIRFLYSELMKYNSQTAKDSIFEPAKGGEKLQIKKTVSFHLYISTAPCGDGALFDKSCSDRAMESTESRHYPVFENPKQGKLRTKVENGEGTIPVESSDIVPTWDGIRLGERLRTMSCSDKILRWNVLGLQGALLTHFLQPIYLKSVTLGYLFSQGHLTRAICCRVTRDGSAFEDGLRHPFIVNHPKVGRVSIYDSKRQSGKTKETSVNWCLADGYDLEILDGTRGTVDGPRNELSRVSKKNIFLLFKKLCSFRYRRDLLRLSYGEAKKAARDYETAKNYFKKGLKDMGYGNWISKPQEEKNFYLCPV

[3] = molecular target: cysteines in MDA-MB-231 and Ramos cells (Homo sapiens, UniProt P22061)
Chain of cysteines in MDA-MB-231 and Ramos cells (Homo sapiens, UniProt P22061) (P22061 whole entry): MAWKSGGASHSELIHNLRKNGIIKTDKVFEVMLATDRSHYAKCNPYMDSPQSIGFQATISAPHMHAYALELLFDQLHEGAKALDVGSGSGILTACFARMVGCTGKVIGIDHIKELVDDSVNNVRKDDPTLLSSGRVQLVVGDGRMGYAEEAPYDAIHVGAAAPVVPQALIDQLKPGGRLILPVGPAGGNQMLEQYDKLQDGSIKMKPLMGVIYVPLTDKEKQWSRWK

[4] = molecular target: cysteines in MDA-MB-231 and Ramos cells (Homo sapiens, UniProt Q96NY7)
Chain of cysteines in MDA-MB-231 and Ramos cells (Homo sapiens, UniProt Q96NY7) (Q96NY7 whole entry): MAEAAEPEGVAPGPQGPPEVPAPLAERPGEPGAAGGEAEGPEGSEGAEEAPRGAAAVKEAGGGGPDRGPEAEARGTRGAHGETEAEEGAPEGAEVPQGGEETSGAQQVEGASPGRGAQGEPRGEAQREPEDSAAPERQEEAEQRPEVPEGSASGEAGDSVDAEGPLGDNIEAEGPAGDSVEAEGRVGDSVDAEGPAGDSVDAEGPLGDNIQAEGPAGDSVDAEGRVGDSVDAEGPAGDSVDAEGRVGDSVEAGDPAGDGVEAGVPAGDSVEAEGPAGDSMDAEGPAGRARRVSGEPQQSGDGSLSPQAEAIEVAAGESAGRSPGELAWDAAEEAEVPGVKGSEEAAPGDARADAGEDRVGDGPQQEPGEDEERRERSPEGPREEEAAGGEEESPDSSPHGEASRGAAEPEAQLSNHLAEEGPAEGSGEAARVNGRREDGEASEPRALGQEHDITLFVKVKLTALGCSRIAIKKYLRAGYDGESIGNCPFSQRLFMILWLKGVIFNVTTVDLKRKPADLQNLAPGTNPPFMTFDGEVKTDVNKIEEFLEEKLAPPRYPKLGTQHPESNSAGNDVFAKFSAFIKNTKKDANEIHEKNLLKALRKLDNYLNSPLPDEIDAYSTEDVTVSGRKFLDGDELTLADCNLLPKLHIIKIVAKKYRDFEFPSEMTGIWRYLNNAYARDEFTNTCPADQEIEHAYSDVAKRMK

[5] = molecular target: cysteines in MDA-MB-231 and Ramos cells (Homo sapiens, UniProt Q6XZF7)
Chain of cysteines in MDA-MB-231 and Ramos cells (Homo sapiens, UniProt Q6XZF7) (Q6XZF7 whole entry): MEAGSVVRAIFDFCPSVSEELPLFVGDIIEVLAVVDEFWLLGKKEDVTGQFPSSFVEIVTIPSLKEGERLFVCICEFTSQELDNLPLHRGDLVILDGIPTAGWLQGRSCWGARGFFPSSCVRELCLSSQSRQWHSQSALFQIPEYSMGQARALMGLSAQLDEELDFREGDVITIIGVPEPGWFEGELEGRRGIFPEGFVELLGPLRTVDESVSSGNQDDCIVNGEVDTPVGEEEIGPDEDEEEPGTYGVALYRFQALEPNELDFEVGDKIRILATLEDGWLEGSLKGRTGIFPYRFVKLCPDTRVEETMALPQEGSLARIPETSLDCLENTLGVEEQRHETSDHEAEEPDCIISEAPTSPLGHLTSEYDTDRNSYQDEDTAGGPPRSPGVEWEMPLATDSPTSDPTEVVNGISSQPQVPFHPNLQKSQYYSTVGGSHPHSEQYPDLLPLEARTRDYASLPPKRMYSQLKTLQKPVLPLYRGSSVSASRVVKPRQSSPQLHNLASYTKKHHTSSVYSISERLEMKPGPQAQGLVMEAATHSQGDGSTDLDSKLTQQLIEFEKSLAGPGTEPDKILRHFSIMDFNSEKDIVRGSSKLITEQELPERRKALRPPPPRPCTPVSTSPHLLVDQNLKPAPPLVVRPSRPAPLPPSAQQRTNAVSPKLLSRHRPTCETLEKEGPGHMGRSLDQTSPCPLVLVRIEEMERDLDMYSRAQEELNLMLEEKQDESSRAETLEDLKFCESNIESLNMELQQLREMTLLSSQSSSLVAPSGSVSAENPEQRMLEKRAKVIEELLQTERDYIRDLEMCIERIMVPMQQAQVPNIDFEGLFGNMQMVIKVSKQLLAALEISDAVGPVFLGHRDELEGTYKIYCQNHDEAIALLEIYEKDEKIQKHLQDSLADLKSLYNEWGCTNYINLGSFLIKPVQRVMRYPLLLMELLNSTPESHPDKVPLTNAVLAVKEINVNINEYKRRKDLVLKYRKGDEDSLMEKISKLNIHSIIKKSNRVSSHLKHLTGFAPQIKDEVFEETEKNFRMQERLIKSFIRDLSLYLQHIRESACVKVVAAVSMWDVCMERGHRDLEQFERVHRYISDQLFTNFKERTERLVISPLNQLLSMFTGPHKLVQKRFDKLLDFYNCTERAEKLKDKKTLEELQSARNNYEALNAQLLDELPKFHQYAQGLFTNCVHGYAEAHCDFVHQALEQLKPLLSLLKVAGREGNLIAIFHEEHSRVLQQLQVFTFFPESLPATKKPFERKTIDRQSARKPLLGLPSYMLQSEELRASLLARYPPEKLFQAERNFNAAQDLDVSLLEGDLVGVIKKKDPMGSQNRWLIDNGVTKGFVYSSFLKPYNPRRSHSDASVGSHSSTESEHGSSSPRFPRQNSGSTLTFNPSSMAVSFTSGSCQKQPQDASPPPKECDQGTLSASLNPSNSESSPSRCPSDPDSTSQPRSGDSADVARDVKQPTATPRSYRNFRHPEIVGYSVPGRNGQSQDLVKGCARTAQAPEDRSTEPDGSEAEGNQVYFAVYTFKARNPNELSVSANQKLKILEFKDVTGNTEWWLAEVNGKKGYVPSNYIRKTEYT

[6] = molecular target: cysteines in MDA-MB-231 and Ramos cells (Homo sapiens, UniProt P53634)
Chain of cysteines in MDA-MB-231 and Ramos cells (Homo sapiens, UniProt P53634) (P53634 25-463): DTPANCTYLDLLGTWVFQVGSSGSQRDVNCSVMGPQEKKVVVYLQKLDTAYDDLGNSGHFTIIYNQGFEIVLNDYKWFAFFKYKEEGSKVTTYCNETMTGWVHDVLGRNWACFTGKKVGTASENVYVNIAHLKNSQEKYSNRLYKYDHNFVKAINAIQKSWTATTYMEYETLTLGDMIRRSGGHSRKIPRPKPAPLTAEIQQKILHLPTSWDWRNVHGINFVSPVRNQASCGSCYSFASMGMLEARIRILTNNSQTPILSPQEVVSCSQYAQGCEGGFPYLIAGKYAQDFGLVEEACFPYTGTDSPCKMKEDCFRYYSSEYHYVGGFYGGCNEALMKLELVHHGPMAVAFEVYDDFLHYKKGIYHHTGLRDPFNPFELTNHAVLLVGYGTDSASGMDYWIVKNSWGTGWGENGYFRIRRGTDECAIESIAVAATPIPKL

CC(C)CCOCCNC(=O)CCl [compound 27]
isoTOP-ABPP ratio P51649_C340 ([1]; 200 μM, insitu, 231): 0.9
isoTOP-ABPP ratio P55265_C1224 [2]; 231: 1.4
isoTOP-ABPP ratio P22061_ ([3]; 200 μM, insitu, 231): 2.2

COc1cc2c(cc1OC)CN(C(=O)CCl)CC2 [compound 8]
isoTOP-ABPP reactivity P51649_C340 ALDH5A1 ([1]; 200 μM, insitu, 231): 2.7
isoTOP-ABPP reactivity Q96NY7_C487 CLIC6 ([4]; 200 μM, insitu, 231): 5.1
isoTOP-ABPP reactivity P22061_C102 PCMT1 ([3]; 200 μM, insitu, 231): 4.5

COc1ccc(C2CC(c3cccs3)=NN2C(=O)CCl)cc1 (stereo not shown) [compound 4]
isoTOP-ABPP reactivity Q6XZF7_C691 DNMBP ([5]; 100 μM in situ 231): 1.2
isoTOP-ABPP reactivity P53634_C258 CTSC ([6]; 100 μM in situ 231): 1.2
isoTOP-ABPP reactivity P51649_C340 ALDH5A1 ([1]; 100 μM in situ 231): 1.0
isoTOP-ABPP reactivity Q96NY7_C487 CLIC6 ([4]; 100 μM in situ 231): 20.0
isoTOP-ABPP reactivity P22061_C102 PCMT1 ([3]; 100 μM in situ 231): 2.8

O=C(CCl)Nc1cccc2ncccc12 [compound 51]
isoTOP-ABPP ratio P55265_C1224 [2]; 231: 1.3

O=C(CCl)N1CCN(S(=O)(=O)c2ccccc2F)CC1 [compound 10]
isoTOP-ABPP ratio, cysteine Q6XZF7_C691 ([5]; 200 μM, insitu, 231): 20.0
isoTOP-ABPP ratio, cysteine Q6XZF7_C691 ([5]; 200 μM, insitu, ramos): 20.0
isoTOP-ABPP ratio, cysteine P53634_C258 ([6]; 200 μM, insitu, 231): 5.5
isoTOP-ABPP ratio P51649_C340 ([1]; 200 μM, insitu, 231): 13.4
isoTOP-ABPP ratio P51649_C340 ([1]; 200 μM, insitu, ramos): 20.0
isoTOP-ABPP ratio Q96NY7_C487 ([4]; 200 μM, insitu, 231): 3.2
isoTOP-ABPP ratio, cysteine P55265_C1224 [2]; 231: 10.7
isoTOP-ABPP ratio P22061_C102 ([3]; 200 μM, insitu, 231): 1.6

CC1CCc2ccccc2N1C(=O)CCl (stereo not shown) [compound 45]
isoTOP-ABPP ratio P51649_C340 ([1]; 200 μM, insitu, 231): 2.4
isoTOP-ABPP ratio Q96NY7_C487 ([4]; 200 μM, insitu, 231): 1.8
isoTOP-ABPP ratio P55265_C1224 [2]; 231: 20.0

Cc1ccc(C=C(C#N)C(=O)NCCN2CCOCC2)cc1 [compound 41]
isoTOP-ABPP ratio Q96NY7_C487 ([4]; 200 μM, insitu, 231): 0.4
isoTOP-ABPP ratio P22061_ ([3]; 200 μM, insitu, 231): 0.7

COc1ccc2c(c1)CCCN2C(=O)CCl [compound 2]
isoTOP-ABPP reactivity P53634_C258 CTSC ([6]; 200 μM, insitu, 231): 0.9
isoTOP-ABPP reactivity P51649_C340 ALDH5A1 ([1]; 200 μM, insitu, 231): 1.9
isoTOP-ABPP reactivity P55265_C1224 ADAR [2]; 231: 9.1

O=C(CCl)NC(=O)NC12CC3CC(CC(C3)C1)C2 [compound 12]
isoTOP-ABPP ratio, cysteine P53634_C258 ([6]; 200 μM, insitu, 231): 13.4
isoTOP-ABPP ratio P51649_C340 ([1]; 200 μM, insitu, 231): 20.0
isoTOP-ABPP ratio Q96NY7_C487 ([4]; 200 μM, insitu, 231): 20.0
isoTOP-ABPP ratio P22061_C102 ([3]; 200 μM, insitu, 231): 5.8

C=CC(=O)N(Cc1cccnc1)c1cc(C(F)(F)F)cc(C(F)(F)F)c1 [compound 31]
isoTOP-ABPP ratio Q6XZF7_C691 ([5]; 200 μM, insitu, 231): 2.3
isoTOP-ABPP ratio P51649_C340 ([1]; 200 μM, insitu, ramos): 1.0
isoTOP-ABPP ratio Q96NY7_C487 ([4]; 200 μM, insitu, 231): 0.5

Cn1cc(S(=O)(=O)N2CCOCC2)cc1C(=O)NC(=O)CCl [compound 11]
isoTOP-ABPP ratio Q96NY7_C487 ([4]; 100 μM in situ 231): 3.1
isoTOP-ABPP ratio P22061_C102 ([3]; 100 μM in situ 231): 0.8

O=C(CCl)NCCc1c[nH]c2ccccc12 [compound 13]
isoTOP-ABPP ratio, cysteine Q6XZF7_C691 ([5]; 200 μM, insitu, 231): 1.6
isoTOP-ABPP ratio, cysteine P53634_C258 ([6]; 200 μM, insitu, 231): 1.6
isoTOP-ABPP ratio P51649_C340 ([1]; 200 μM, insitu, 231): 1.1
isoTOP-ABPP ratio P51649_C340 ([1]; 200 μM, insitu, ramos): 1.3
isoTOP-ABPP ratio Q96NY7_C487 ([4]; 200 μM, insitu, 231): 1.9
isoTOP-ABPP ratio, cysteine P55265_C1224 [2]; 231: 1.9
isoTOP-ABPP ratio P22061_C102 ([3]; 200 μM, insitu, 231): 0.9

O=C(CCl)N1CCN(CC(=O)N2CCOCC2)CC1 [compound 29]
isoTOP-ABPP ratio P51649_C340 ([1]; 200 μM, insitu, ramos): 1.0
isoTOP-ABPP ratio P55265_C1224 ([2]; ramos): 1.8
isoTOP-ABPP ratio P22061_ ([3]; 200 μM, insitu, ramos): 1.2

O=C(CCl)NC12CC3CC(CC(C3)C1)C2 [compound 21]
isoTOP-ABPP ratio, cysteine Q6XZF7_C691 ([5]; 200 μM, insitu, 231): 0.8
isoTOP-ABPP ratio, cysteine P53634_C258 ([6]; 200 μM, insitu, 231): 2.8
isoTOP-ABPP ratio P51649_C340 ([1]; 200 μM, insitu, 231): 1.2
isoTOP-ABPP ratio Q96NY7_C487 ([4]; 200 μM, insitu, 231): 1.2
isoTOP-ABPP ratio, cysteine P55265_C1224 [2]; 231: 2.2

O=C(CCl)N1CCC(Cc2ccccc2)CC1 [compound 9]
isoTOP-ABPP reactivity Q6XZF7_C691 DNMBP ([5]; 200 μM, insitu, 231): 3.4
isoTOP-ABPP reactivity Q96NY7_C487 CLIC6 ([4]; 200 μM, insitu, 231): 3.6
isoTOP-ABPP reactivity P22061_C102 PCMT1 ([3]; 200 μM, insitu, 231): 1.2
